In patent US9394519B2, “Methods to produce mast cell culture” (Apollonian Biosystems Limited, priority 2011, dated 2016):
Ends that are not written are not given here.

Assays:
human mast cells [1] = test: Inhibition of IgE-dependent degranulation (histamine release in response to anti-IgE); format: cell-based; settings: IgE-sensitized human mast cells challenged with anti-IgE; FIG. 5
Method: Cultured mast cells at week 6, week 9 and week 12 were harvested, counted and seeded into 24-well plates in complete IMDM with 100 ng/ml SCF and 50 ng/ml IL-6. • IgE-dependent activation: Human mast cells were first sensitized by 0.5 μg/ml human myeloma IgE (Merck) in culture medium overnight. Unbound IgE was then removed by washing once with PBS. The cells were then resuspended in full HEPES buffer (FHB: 137 mM NaCl, 5.56 mM glucose, 12 mM HEPES, 2.7 mM KCl, 0.4 mM NaH2PO4 and 1 mM CaCl2 at pH 7.4) supplemented with 0.03% human albumin (HA) (for release of histamine and PGD2) or in IMDM with 10% FBS (for release of IL-8). […] 3.b Histamine Release Histamine released into the reaction buffer and the remaining granular histamine in the pellets were collected and analyzed by using Bran+Luebbe Autoanalyzer (AAIII Autoanalyzer, Bran+Luebbe, Germany) which chemically extracted histamine from the samples as described by Siraganian (Siraganian, R. P. 1974, Analytical Biochemistry 57(2): 383-394). […] For all stimulation studies, histamine released into the supernatant was expressed as a percentage of total cellular histamine content and all histamine release values were corrected for the spontaneous histamine release in buffer alone.

mast cell tryptase = test: Cell-based assay for screening tryptase inhibitors (MCP-1 degradation in medium of anti-IgE-stimulated mast cells); set-up: species or system human; settings: for Inhibition of the degradation of MCP-1 in the reaction medium: 6-hour reaction medium of anti-IgE-stimulated mast cells incubated with inhibitor at 37° C. for 16 hours, FIG. 7
Method: Primary human mast cells with functional phenotype of connective tissue-type mast cells were derived from peripheral blood using the protocol described in Example 1. Cells were stimulated via the high-affinity IgE receptors (FcERI) using an anti-IgE antibody and kept under various conditions (see conditions A to G below) for 6 hours and 16 hours. The supernatants were then collected and the MCP-1 level in the supernatants was determined.

human mast cells [2] = test: Mast cell activation: release of histamine, PGD2 and IL-8 in response to stimuli; format: cell-based; settings: human mast cells generated in Example 1, cultured 6 weeks or more; FIGS. 1-4
Method: To validate that the human mast cell cultures are functionally responsive, the release of histamine, prostaglandin D2 (PGD2) and interleukin-8 (IL-8) in response to stimulations by anti-IgE, aggregated IgG1, Toll-like receptor ligands, Substance P, compound 48/80 and ionophores was measured.
Cultured mast cells at week 6, week 9 and week 12 were harvested, counted and seeded into 24-well plates in complete IMDM with 100 ng/ml SCF and 50 ng/ml IL-6. • IgE-dependent activation: Human mast cells were first sensitized by 0.5 μg/ml human myeloma IgE (Merck) in culture medium overnight. Unbound IgE was then removed by washing once with PBS. […]
Histamine released into the reaction buffer and the remaining granular histamine in the pellets were collected and analyzed by using Bran+Luebbe Autoanalyzer (AAIII Autoanalyzer, Bran+Luebbe, Germany) which chemically extracted histamine from the samples as described by Siraganian (Siraganian, R. P. 1974, Analytical Biochemistry 57(2): 383-394). […] For all stimulation studies, histamine released into the supernatant was expressed as a percentage of total cellular histamine content and all histamine release values were corrected for the spontaneous histamine release in buffer alone. […]

## CC(C)(C)NCC(O)c1ccc(O)c(CO)c1 (centres unmarked) [Salbutamol]
Human mast cells [1]
  Inhibition of IgE-dependent degranulation (histamine release): can be inhibited

## CC(C)C[C@H](NC(=O)[C@@H](NC(=O)N[C@@H](Cc1ccccc1)C(=O)O)[C@@H]1CCN=C(N)N1)C(=O)N[C@H](C=O)Cc1ccccc1 [Chymostatin]
Mast cell tryptase
  Inhibition of the degradation of MCP-1 in the reaction medium: not

## CC(C)C[C@H](NC(=O)[C@@H](O)[C@H](N)Cc1ccccc1)C(=O)O [Bestatin]
Mast cell tryptase
  Inhibition of the degradation of MCP-1 in the reaction medium: not

## Substance P (RPKPQQFFGLM; ends and bridges not checked; UniProt P20366 58-68, looked up)
Human mast cells [2]
  Release of histamine, PGD2 and IL-8 in response to stimulation: Release of histamine, PGD2 and IL-8 was observed

## NC(=O)[C@@H]1CCCN1C(=O)[C@H](CCCN=C(N)N)NC(=O)c1ccc2ccccc2c1O [APC366]
Mast cell tryptase; inhibitor added at 6th hour, 16 hours at 37° C., FIG. 8
  MCP-1 level relative to condition A (peak MCP-1 level at the 6th hour after stimulation): approximate the same
